Patent US20260062449A1, “PEPTIDE COMPOSITIONS AND METHODS OF USE” (ONL Therapeutics, Inc., priority 2022, published 2026)
No end group written: not given here.

What was measured:
[1] = Aqueous solubility / solution behaviour of Met-12; assay type: physicochemical
From the text: Experiments have clearly shown that Met-12 has to be dosed as a solution, both in vitro and in vivo, to show optimal activity, and producing such solutions in a largely aqueous medium has proven to be very difficult, especially under conditions which are acceptable for intravitreal injection. Dosing of suspensions or gels of Met-12 leads to major losses of potency. […] Despite extensive development work, the only solution formulations of Met-12 which have been found involve some very low pH solution injections (≤pH 2.8) or neat DMSO injections, all of which are suboptimal for intravitreal injections.

Jurkat cells = test: Cell viability preservation in vitro: cell confluence of Jurkat cells after 24-hour incubation with FasL; assay type: cell-based; settings: recombinant His-tagged FasL along with anti-His antibody
Protocol: Compounds (oligopeptides) of the present disclosure were assayed for their ability to effect cell confluence following a 24-hour incubation. Jurkat cells were incubated for 24 hours with varying concentrations of compound (i.e., 200, 66.7, 22.2, 7.4, 2.5, 0.8, 0.3, and 0.1) and with or without recombinant His-tagged FasL along with an anti-His antibody. After the 24-hour incubation, cell confluence was quantified using an S3 Incucyte Imaging System (Sartorius) and a Vi-CELL XR Cell Viability Analyzer (Beckman Coulter) and compared to controls (cells incubated in the absence of compound and cells incubated with a known Fas inhibitor).

Row | Substance | aqueous solubility [1] | loss of material upon filtration ([1]; apparently clear 10 rang/mL solution in 20 mM citrate buffer pH 2.8) | Activity: lowest concentration that prevented loss of cell confluency (Jurkat cells)
1 | HHIYLGAVNYIY [Met-12, H^60HIYLGAVNYIY^71] | extremely poor aqueous solubility | considerable loss of material upon filtration | 
2 | HHIYLGAVNYIY-NH2 [Compound A, reference compound] |  |  | A (cell protection at x < 1.0 μM)
3 | NH2-HHIAAGAVNYIY-C(O)NH2 (H-HHIAAGAVNYIY-NH2) [Compound 6] |  |  | B (cell protection at 1.0 < x < 10.0 μM)
4 | NH2-HHIYLGGGGGNYIY-C(O)NH2 (H-HHIYLGGGGGNYIY-NH2) [Compound 7] |  |  | B (cell protection at 1.0 < x < 10.0 μM)
5 | NH2-HHIYLGSSSSNYIY-C(O)NH2 (H-HHIYLGSSSSNYIY-NH2) [Compound 8] |  |  | B (cell protection at 1.0 < x < 10.0 μM)
6 | NH2-HKIYLGAVNYIY-C(O)NH2 (H-HKIYLGAVNYIY-NH2) [Compound 11] |  |  | B (cell protection at 1.0 < x < 10.0 μM)
7 | NH2-KHIYLGAVNYIY-C(O)NH2 (H-KHIYLGAVNYIY-NH2) [Compound 10] |  |  | A (cell protection at x < 1.0 μM)
8 | NH2-KKIYLGAVNYIY-C(O)NH2 (H-KKIYLGAVNYIY-NH2) [Compound 9] |  |  | B (cell protection at 1.0 < x < 10.0 μM)
